Reference: PubChem BioAssay AID248 (DTP/NCI, 2004)
Where “and” joins values, the source holds several entries; their conditions need not be identical. Equal values may be shown once. Toxic doses and inconclusive results are not listed.

Tested on: L1210 leukemia ip in BDF1 mice, survival T/C
Assay: NCI In Vivo Anticancer Drug Screen. Data for tumor model L1210 Leukemia (intraperitoneal) in B6D2F1 (BDF1) mice
Conditions: endpoint: mean survival time, higher = longer survival
How it was run: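 Antitumor effect is assessed in tumor-bearing animals. Survival in the compound arm is compared with a vehicle-dosed control arm and expressed as their quotient.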

[1] = dose: 100.0 mg/kg/injection, schedule: Q01DX009 (ip), vehicle: Klucel (hydroxypropylcellulose) (HPC)
[2] = dose: 200.0 mg/kg/injection, schedule: Q01DX009 (ip), vehicle: Klucel (hydroxypropylcellulose) (HPC)
[3] = dose: 100.0 mg/kg/injection, schedule: Q04DX002 (ip), vehicle: Klucel (hydroxypropylcellulose) (HPC)
[4] = dose: 200.0 mg/kg/injection, schedule: Q04DX002 (ip), vehicle: Klucel (hydroxypropylcellulose) (HPC)
[5] = dose: 100.0 mg/kg/injection, schedule: Q04DX003 (ip), vehicle: Klucel (hydroxypropylcellulose) (HPC)
[6] = dose: 200.0 mg/kg/injection, schedule: Q04DX003 (ip), vehicle: Klucel (hydroxypropylcellulose) (HPC)
[7] = dose: 400.0 mg/kg/injection, schedule: Q04DX003 (ip), vehicle: Klucel (hydroxypropylcellulose) (HPC)
[8] = dose: 100.0 mg/kg/injection, schedule: Q01DX001 (ip), vehicle: saline
[9] = dose: 200.0 mg/kg/injection, schedule: Q01DX001 (ip), vehicle: saline
[10] = dose: 400.0 mg/kg/injection, schedule: Q01DX001 (ip), vehicle: saline
[11] = dose: 50.0 mg/kg/injection, schedule: Q01DX009 (ip), vehicle: other
[12] = dose: 100.0 mg/kg/injection, schedule: Q01DX009 (ip), vehicle: other
[13] = dose: 200.0 mg/kg/injection, schedule: Q01DX009 (ip), vehicle: other
[14] = dose: 100.0 mg/kg/injection, schedule: Q01DX009 (ip), vehicle: saline with Tween-80
[15] = dose: 200.0 mg/kg/injection, schedule: Q01DX009 (ip), vehicle: saline with Tween-80
[16] = dose: 400.0 mg/kg/injection, schedule: Q01DX009 (ip), vehicle: saline with Tween-80
[17] = dose: 100.0 mg/kg/injection, schedule: Q04DX003 (ip), vehicle: saline with Tween-80
[18] = dose: 200.0 mg/kg/injection, schedule: Q04DX003 (ip), vehicle: saline with Tween-80
[19] = dose: 100.0 mg/kg/injection, schedule: Q04DX003 (ip), vehicle: saline
[20] = dose: 200.0 mg/kg/injection, schedule: Q04DX003 (ip), vehicle: saline
[21] = dose: 400.0 mg/kg/injection, schedule: Q04DX003 (ip), vehicle: saline
[22] = dose: 400.0 mg/kg/injection, schedule: Q01DX009 (ip), vehicle: Klucel (hydroxypropylcellulose) (HPC)

For `CC(=O)OC(C)(C)/C=C/C(=O)C(C)(O)C1C(O)CC2(C)C3CC=C4C(C=C(OC5OC(CO)C(O)C(O)C5O)C(=O)C4(C)C)C3(C)C(=O)CC12C` (stereo unspecified), the T/C (dose: 25.0 mg/kg/injection, schedule: Q04DX002 (ip), vehicle: saline with Tween-80) was 98 % of control, the T/C (dose: 50.0 mg/kg/injection, schedule: Q04DX002 (ip), vehicle: saline with Tween-80) was 98 % of control and the T/C (dose: 100.0 mg/kg/injection, schedule: Q04DX002 (ip), vehicle: saline with Tween-80) was 96 % of control and 105 % of control.

In the case of `CN1C(=O)C2(C)CCC1c1ccccc12` (stereo unspecified), the T/C (dose: 100.0 mg/kg/injection, schedule: Q01DX001 (ip), vehicle: other) is reported as 103 % of control and the T/C (dose: 200.0 mg/kg/injection, schedule: Q01DX001 (ip), vehicle: other) is reported as 103 % of control.

With `CSc1ccc(OC(=O)Oc2ccc(SC)c(C)c2)cc1C` the T/C (dose: 100.0 mg/kg/injection, schedule: Q01DX001 (ip), vehicle: carboxymethylcellulose (CMC)) was 92 % of control, the T/C (dose: 200.0 mg/kg/injection, schedule: Q01DX001 (ip), vehicle: carboxymethylcellulose (CMC)) was 92 % of control and the T/C (dose: 400.0 mg/kg/injection, schedule: Q01DX001 (ip), vehicle: carboxymethylcellulose (CMC)) was 97 % of control.

For `CNC(=O)Oc1cc2ccccc2cc1C(=O)Nc1cc(OC)ccc1OC`, the T/C (dose: 25.0 mg/kg/injection, schedule: Q01DX009 (ip), vehicle: Klucel (hydroxypropylcellulose) (HPC)) was 94 % of control, the T/C (dose: 50.0 mg/kg/injection, schedule: Q01DX009 (ip), vehicle: Klucel (hydroxypropylcellulose) (HPC)) was 101 % of control and the T/C [1] was 94 % of control. For the same compound, the T/C [2] was 95 % of control.

`Cc1ccc(C)c2c(CC(=O)O)c[nH]c12` was tested, and the T/C (dose: 100.0 mg/kg/injection, schedule: Q01DX001 (ip), vehicle: saline with Tween-80) was 100 % of control, the T/C (dose: 200.0 mg/kg/injection, schedule: Q01DX001 (ip), vehicle: saline with Tween-80) was 107 % of control and the T/C (dose: 400.0 mg/kg/injection, schedule: Q01DX001 (ip), vehicle: saline with Tween-80) was 102 % of control.

`CCOC(=O)C1C(=O)Nc2c(ccc3ccccc23)N1C(C)=O` (stereo unspecified) was tested, and the T/C (dose: 50.0 mg/kg/injection, schedule: Q04DX002 (ip), vehicle: Klucel (hydroxypropylcellulose) (HPC)) was 96 % of control, the T/C [3] was 93 % of control and the T/C [4] was 93 % of control.

With `CCCCCCCCCCCC(=O)NC(=S)Nc1ccccc1OCC` the T/C [5] was 89 % of control, the T/C [6] was 90 % of control and the T/C [7] was 89 % of control.

`CCC1(Sc2ncnc3c2ncn3C2OC(CO)C(O)C2O)C(=O)NC(=O)NC1=O` (stereo unspecified) was tested, and the T/C [8] was 114 % of control, the T/C [9] was 111 % of control and the T/C [10] was 120 % of control.

For `CCC/C=C/CC1CC2CC(C1C)C2(C)C` (stereo unspecified), the T/C [11] was 97 % of control, the T/C [12] was 101 % of control and the T/C [13] was 90 % of control.

`Nc1ncc(-c2ccc(CNc3ccc(C(=O)NC(CC(=O)O)CC(=O)O)cc3)cc2)c(N)n1` was tested, and the T/C (dose: 10.5 mg/kg/injection, schedule: Q01DX009 (ip), vehicle: saline) was 122 % of control, the T/C (dose: 12.5 mg/kg/injection, schedule: Q01DX009 (ip), vehicle: saline) was 114 % of control and the T/C (dose: 14.5 mg/kg/injection, schedule: Q01DX009 (ip), vehicle: saline) was 116 % of control. The T/C (dose: 18.0 mg/kg/injection, schedule: Q01DX009 (ip), vehicle: saline) was 114 % of control, the T/C (dose: 22.0 mg/kg/injection, schedule: Q01DX009 (ip), vehicle: saline) was 116 % of control and the T/C (dose: 50.0 mg/kg/injection, schedule: Q01DX009 (ip), vehicle: saline) was 165 % of control and 185 % of control. The T/C (dose: 66.0 mg/kg/injection, schedule: Q01DX001 (ip), vehicle: saline) was 122 % of control, the T/C (dose: 75.0 mg/kg/injection, schedule: Q01DX001 (ip), vehicle: saline) was 112 % of control and 119 % of control and the T/C (dose: 75.0 mg/kg/injection, schedule: Q01DX009 (ip), vehicle: saline) was 107 % of control. The T/C (dose: 150.0 mg/kg/injection, schedule: Q01DX001 (ip), vehicle: saline) was 115 % of control.

In the case of `CC1(C)C=CC(C)(C)c2c(NS(=O)(=O)c3ccccc3)ccc(NS(=O)(=O)c3ccccc3)c21`, the T/C [14] is reported as 97 % of control, the T/C [15] is reported as 92 % of control and the T/C [16] is reported as 94 % of control.

With `OCC(O)C(O)C(O)C(O)C(O)c1nc2ccccc2[nH]1` (stereo unspecified) the T/C [14] was 101 % of control, the T/C [17] was 97 % of control and the T/C [15] was 98 % of control. For the same compound, the T/C [18] was 93 % of control, the T/C [16] was 96 % of control and the T/C (dose: 400.0 mg/kg/injection, schedule: Q04DX003 (ip), vehicle: saline with Tween-80) was 103 % of control.

With `Cc1ccc(S(=O)(=O)NC(=O)NC(C)C(=O)O)cc1` (stereo unspecified) the T/C [19] was 102 % of control, the T/C [20] was 97 % of control and the T/C [21] was 96 % of control.

`Cc1c(C(C)(C)C)cc(CC(C)C)c(O)c1-c1c(C)c(CC(C)C)cc(C(C)(C)C)c1O` was tested, and the T/C [3] was 98 % of control, the T/C [4] was 91 % of control and the T/C (dose: 400.0 mg/kg/injection, schedule: Q04DX002 (ip), vehicle: Klucel (hydroxypropylcellulose) (HPC)) was 94 % of control.

`CCOC(=O)/C=C\n1c(=O)cc(C)c2ccccc21` was tested, and the T/C [1] was 98 % of control, the T/C [5] was 89 % of control and the T/C [2] was 108 % of control. For the same compound, the T/C [6] was 92 % of control, the T/C [22] was 108 % of control and the T/C [7] was 87 % of control.

`CC[CH2][Pb]([Cl])([CH2]CC)[CH2]CC` was tested, and the T/C (dose: 12.5 mg/kg/injection, schedule: Q04DX003 (ip), vehicle: Klucel (hydroxypropylcellulose) (HPC)) was 106 % of control, the T/C (dose: 25.0 mg/kg/injection, schedule: Q04DX003 (ip), vehicle: Klucel (hydroxypropylcellulose) (HPC)) was 95 % of control and the T/C (dose: 50.0 mg/kg/injection, schedule: Q04DX003 (ip), vehicle: Klucel (hydroxypropylcellulose) (HPC)) was 90 % of control.

In the case of `CCSc1nc2c([nH]1)c(=S)n(C)c(=O)n2C`, the T/C [8] is reported as 96 % of control, the T/C (dose: 100.0 mg/kg/injection, schedule: Q01DX009 (ip), vehicle: saline) is reported as 100 % of control and the T/C [19] is reported as 109 % of control. For the same compound, the T/C [9] was 112 % of control, the T/C (dose: 200.0 mg/kg/injection, schedule: Q01DX009 (ip), vehicle: saline) was 89 % of control and the T/C [20] was 98 % of control. The T/C [10] was 95 % of control, the T/C (dose: 400.0 mg/kg/injection, schedule: Q01DX009 (ip), vehicle: saline) was 103 % of control and the T/C [21] was 98 % of control.

With `CNC(=O)NNC(=O)CNC(=O)Nc1cccc([N+](=O)[O-])c1` the T/C (dose: 25.0 mg/kg/injection, schedule: Q01DX009 (ip), vehicle: saline with Tween-80) was 91 % of control and the T/C (dose: 50.0 mg/kg/injection, schedule: Q01DX009 (ip), vehicle: saline with Tween-80) was 94 % of control.

In the case of `Cc1ccc(C)c(NC(=O)N(CCO)C2CCCCC2)c1`, the T/C [1] is reported as 98 % of control, the T/C [5] is reported as 104 % of control and the T/C [2] is reported as 95 % of control. The T/C [6] was 103 % of control, the T/C [22] was 90 % of control and the T/C [7] was 95 % of control.

In the case of `CC(=O)N(CCN(Cc1ccc(Oc2ccc([N+](=O)[O-])cc2[N+](=O)[O-])cc1)C(C)=O)CCN(Cc1ccc(Oc2ccc([N+](=O)[O-])cc2[N+](=O)[O-])cc1)C(C)=O`, the T/C (dose: 25.0 mg/kg/injection, schedule: Q01DX009 (ip), vehicle: other) is reported as 102 % of control, the T/C [11] is reported as 97 % of control and the T/C [12] is reported as 96 % of control. For the same compound, the T/C [13] was 96 % of control and the T/C (dose: 400.0 mg/kg/injection, schedule: Q01DX009 (ip), vehicle: other) was 93 % of control.

For `CC(C)c1cccc(O)c(=O)c1`, the T/C [17] was 95 % of control and the T/C [18] was 103 % of control.

For `CN(C)CCOc1ncnc2nc[nH]c12`, the T/C [19] was 101 % of control, the T/C [20] was 102 % of control and the T/C [21] was 96 % of control.

In the case of `CC(C)(C)NC(=O)C1CC2(C)CCC1C2(C)C` (stereo unspecified), the T/C (dose: 75.0 mg/kg/injection, schedule: Q01DX001 (ip), vehicle: other) is reported as 93 % of control and the T/C (dose: 150.0 mg/kg/injection, schedule: Q01DX001 (ip), vehicle: other) is reported as 93 % of control.

With `NC(=S)c1nnn(Cc2ccccc2)c1N` the T/C [8] was 100 % of control, the T/C [9] was 101 % of control and the T/C [10] was 102 % of control.

In the case of `Oc1ccc2ccccc2c1Sc1c(O)ccc2ccccc12`, the T/C [17] is reported as 101 % of control and the T/C [18] is reported as 101 % of control.

`Cc1ccccc1Sc1cc2ccccc2c2ccccc12` was tested, and the T/C [8] was 94 % of control, the T/C [14] was 96 % of control and the T/C [9] was 97 % of control. For the same compound, the T/C [15] was 98 % of control, the T/C [10] was 94 % of control and the T/C [16] was 101 % of control.
